Data taken from PMC10384782, “New Phenolic Lipids from the Leaves of Clausena harmandiana Inhibit SARS-CoV-2 Entry into Host Cells” (Molecules, 2023).
Entries after “also recorded” stand apart in the source; their conditions may differ.

What was measured:
HCoV-229E [1] = assay: HCoV-229E-Luc infection inhibition assay (fractions and pure compounds) in Huh7 cells; assay type: cell-based; conditions: for IC50: Human coronavirus 229E, Huh-7, 12 h, read-out: IC50 (concentration inhibited infection by 50%)
SARS-CoV-2 [2] = assay: microbe, parasite or virus in culture; assay type: cell-based; conditions: for selectivity index (SI): SARS-CoV-2, Vero-E6 cells; for IC50: Severe acute respiratory syndrome coronavirus 2, Vero C1008, 48 h, read-out: IC50 against SARS-CoV-2
HCoV-229E [3] = assay: Time-of-drug addition assay in HCoV-229E-Luc-infected Huh7 cells; assay type: cell-based; conditions: 2 and 3 at 0.2 µM; for inhibition of infection when present during the virus entry step: Q3G 25 µM, co-added with virus for 1 h; for inhibition of infection when added after virus inoculation (replication step): Remdesivir 0.1 µM, luciferase activity
HCoV-229E [4] = assay: microbe, parasite or virus in culture; assay type: cell-based; conditions: Human coronavirus 229E, Huh-7; read-out: inhibition of infection after pre-incubation of virus particles
SARS-CoV-2 [5] = assay type: cell-based
in vitro [6] = conditions: human
in vitro [7] = conditions: African green monkey

Compound: CCCCC=CCCCCCCCCCCCC(O)Cc1cc(O)ccc1O (stereo not drawn) [Compound 2, (2′R)-2-[(14′Z)-2′-hydroxynonadec-14′-en-1′-yl]benzene-1,4-diol]
- SI, selectivity index (CC50/IC50) (HCoV-229E [1]): 5
- effect on HCoV-229E-Luc infection at 0.01 µM without pre-incubation (HCoV-229E [1]; Huh7 cells): does not inhibit
- IC50 (HCoV-229E [1]): 100 ± 30 nM
- selectivity index (SI) (SARS-CoV-2 [2]): 2.5
- IC50 (SARS-CoV-2 [2]): 200 nM
- inhibition of infection when present during the virus entry step (HCoV-229E [3]): strong inhibition of infection
- inhibition of infection when added after virus inoculation (replication step) (HCoV-229E [3]): no inhibition of infection
- inhibition at 0.2 µM (HCoV-229E [4]): ≤ 60%
- decrease of viral progeny (residual infectivity) (SARS-CoV-2 [5]): up to 1 log
- CC50 (in vitro [6]): 500 ± 50 nM
- CC50 (in vitro [7]): 500 ± 80 nM

Compound: CCCC=CCCCCCCCCCCCC(O)Cc1cc(O)ccc1O (stereo not drawn) [Compound 1, (2′. R)-2-[(14′Z)-2′-Hydroxyoctadec-14′-en-1′-yl]benzene-1,4-diol]
- antiviral activity against HCoV-229E (in words) (HCoV-229E [1]; non-cytotoxic doses (up to 0.25 µM), Huh7 cells): no antiviral effect; also recorded: no antiviral activity
- antiviral activity against SARS-CoV-2 (in words) (SARS-CoV-2 [2]; Vero-E6 cells, non-cytotoxic concentrations): no antiviral activity
- CC50 (in vitro [6]): 1300 ± 100 nM
- CC50 (in vitro [7]): 1500 ± 200 nM

Compound: CCC(CC)COC(=O)[C@H](C)N[P@](=O)(OC[C@H]1O[C@@](C#N)(c2ccc3c(N)ncnn23)[C@H](O)[C@@H]1O)Oc1ccccc1 [Remdesivir, reference compound]
- inhibition of infection when added after virus inoculation (replication step) (HCoV-229E [3]): strongly inhibited viral replication

Compound: O=c1c(O[C@@H]2O[C@H](CO)[C@@H](O)[C@H](O)[C@H]2O)c(-c2ccc(O)c(O)c2)oc2cc(O)cc(O)c12 [Compound Q3G, Isoquercitrin, reference compound]
- inhibition of infection when present during the virus entry step (HCoV-229E [3]): strong inhibition of infection

Compound: CCCCCCCCCCCCCCCC[C@@H](O)Cc1cc(O)ccc1O [Compound 3, (2′R)-(2-(2-hydroxyoctadecyl)benzene-1,4-diol)]
- SI, selectivity index (CC50/IC50) (HCoV-229E [1]): 16
- effect on HCoV-229E-Luc infection at 0.01 µM without pre-incubation (HCoV-229E [1]; Huh7 cells): does not inhibit
- IC50 (HCoV-229E [1]): 50 ± 40 nM
- selectivity index (SI) (SARS-CoV-2 [2]): 18
- IC50 (SARS-CoV-2 [2]): 50 nM
- inhibition of infection when present during the virus entry step (HCoV-229E [3]): strong inhibition of infection
- inhibition of infection when added after virus inoculation (replication step) (HCoV-229E [3]): no inhibition of infection
- inhibition at 0.2 µM (HCoV-229E [4]): ≤ 80%
- CC50 (in vitro [6]): 800 ± 100 nM
- CC50 (in vitro [7]): 900 ± 200 nM
